{"source": "patent EP4455159A1", "about": "“GASTRIC INHIBITORY PEPTIDE RECEPTOR LIGANDS WITH BIO-DISTRIBUTION MODIFIER” (3B Pharmaceuticals GmbH, priority 2023, dated 2024)", "target": "T1, GIPR (Homo sapiens, UniProt P48546)", "T1 construct": "host or cells: CHO-K1", "T1 sequence (P48546 22-466)": "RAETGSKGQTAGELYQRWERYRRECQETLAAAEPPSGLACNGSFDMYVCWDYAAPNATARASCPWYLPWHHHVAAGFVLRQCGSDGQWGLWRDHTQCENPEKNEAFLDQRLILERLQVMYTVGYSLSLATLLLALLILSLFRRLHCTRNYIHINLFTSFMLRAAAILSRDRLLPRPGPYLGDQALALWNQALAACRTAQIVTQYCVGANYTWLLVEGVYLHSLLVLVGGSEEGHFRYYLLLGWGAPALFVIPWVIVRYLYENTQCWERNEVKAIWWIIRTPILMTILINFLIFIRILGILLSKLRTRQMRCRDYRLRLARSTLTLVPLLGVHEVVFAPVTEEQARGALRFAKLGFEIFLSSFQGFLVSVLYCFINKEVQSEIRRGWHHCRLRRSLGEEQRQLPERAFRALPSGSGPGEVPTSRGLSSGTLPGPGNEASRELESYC", "assay": "FACS binding assay", "settings": "CHO-K1-hGIPR cells, various concentrations of biotinylated compound, 4°C for 1 hour, APC-Streptavidin detection", "description": "In order to determine binding of compounds according to the present invention to GIPR-expressing cells, a FACS binding assay is established.\nCHO-K1-hGIPR cells (GenScript Biotech, #M00486) are cultured in Ham's F12 medium (Sigma-Aldrich, #N4888) including 10% fetal calf serum (FCS), 2 mM L-glutamine, 100 U/mL penicillin, 100 µg/mL streptomycin, 200µg/mL Zeocin and 100µg/mL HygromycinB. Cells are detached with Accutase (Biolegend, #BLD-423201) and washed in FACS buffer (PBS including 1% FCS). Cells are diluted in FACS buffer to a final concentration of 500.000 cells per mL. 200 µL of the cell suspension is transferred to a u-shaped non-binding 96-well plate (Greiner) and cells are washed in ice-cold FACS buffer.\nFor EC50 determination, cells are incubated with various concentrations of biotinylated compound (H-Met-Tyr-Asp-Trp-Trp-Pro-Glu-Leu-[Cys(3MeBn)-Ala-Leu-Ile-Cys]-Ttds-Lys(Bio)-NH2) (SEQ ID NO: 3) at 4°C for 1 hour. […] For IC50 determination, cells are incubated with 20 nM of the biotinylated compound in the presence of increasing concentrations of non-labeled test compounds at 4°C for 1 hour. Cells are washed twice in FACS buffer. […]\nCells are analyzed in an Attune NxT flow cytometer. Median fluorescence intensities (MFI) of the APC/Cy5-channel are calculated by Attune NxT software. […]", "note": "Starred links: 1 amine or outer side, 2 acyl side, 3 side chain; linkers in the order of their positions; H or OH if unused. Positions of bridges follow the written chain, without caps; N, C: chain ends. Residues, ends and D or L forms follow the SMILES beside them. *: point of attachment. X1 = NC(=O)[C@H](CCCCNC(=O)CCCC[C@@H]1SC[C@@H]2NC(=O)N[C@@H]21)NC(=O)CCC(=O)NCCCOCCOCCOCCCN*; mXylylene = c1cc(C[*:1])cc(C[*:2])c1"}
{"smiles": "CC[C@H](C)[C@@H]1NC(=O)[C@H](CC(C)C)NC(=O)[C@H](C)NC(=O)[C@@H](NC(=O)[C@H](CC(C)C)NC(=O)[C@H](CCC(=O)O)NC(=O)[C@@H]2CCCN2C(=O)[C@H](Cc2c[nH]c3ccccc23)NC(=O)[C@H](Cc2c[nH]c3ccccc23)NC(=O)[C@H](CC(=O)O)NC(=O)[C@H](Cc2ccc(O)cc2)NC(=O)[C@@H](N)CCSC)CSCc2cccc(c2)CSC[C@@H](C(=O)NCCCOCCOCCOCCCNC(=O)CCC(=O)N[C@@H](CCCCNC(=O)CCCC[C@@H]2SC[C@@H]3NC(=O)N[C@@H]32)C(N)=O)NC1=O", "note": "[biotinylated compound, H-Met-Tyr-Asp-Trp-Trp-Pro-Glu-Leu-[Cys(3MeBn)-Ala-Leu-Ile-Cys]-Ttds-Lys(Bio)-NH2] (H-MYDWWPELCALIC-X1; linker 9-13 via mXylylene)", "values": [{"measurement": "EC50", "result": 3.16, "unit": "nM"}]}
